Laboratory results as given in patent US10981917B2, “Heterocyclic compound, its preparation method, and pharmaceutical composition comprising the same” (Daewoong Pharmaceutical Co., Ltd., priority 2017, dated 2021).

Molecular target: PRS (prolyl-tRNA synthetase) protein, PRS portion of EPRS (Homo sapiens (Human), UniProt P07814)
Experiment: PRS enzyme activity inhibition experiment ([3H]proline, liquid scintillation)
Format: biochemical
Details: purified PRS protein, 37° C. for 5 to 10 minutes
Method: In order to confirm the biological activities of the compounds prepared in Examples, % inhibition or IC50 values of PRS enzyme ([…]) activities were calculated.
Specifically, the portion corresponding to PRS in cDNA of EPRS was subcloned, and the obtained high-purity PRS protein was purified and used in the experiment. The compounds (1 μM) prepared in Examples were added into the reaction buffer (20 mM KPO4 (pH 7.4), 6 mM MgAc, 5 mM ATP, […] tRNA, 0.5 mM DTT, […][^3H]proline (1 mCi/mL)) and allowed to react at 37° C. for 5 to 10 minutes. The reaction was terminated with 3M paper that was in advance dried by addition of 5% TCA. The radioactivity was measured using a liquid scintillation counter.
% Inhibition and IC50 values of the respective compounds were calculated and analyzed using Microsoft Excel or Sigma Plot 8.0. In Tables 1 to 3, the results are divided into A, B and C according to the range of IC50. The case where the derived IC50 is 100 nM or less is represented by “A”, the case where the IC50 is 100 to 500 nM is represented by “B”, and the case where the IC50 is 500 nM or higher is represented by “C”.

PRS (prolyl-tRNA synthetase) protein, PRS portion of EPRS, sequence (P07814 1007-1512): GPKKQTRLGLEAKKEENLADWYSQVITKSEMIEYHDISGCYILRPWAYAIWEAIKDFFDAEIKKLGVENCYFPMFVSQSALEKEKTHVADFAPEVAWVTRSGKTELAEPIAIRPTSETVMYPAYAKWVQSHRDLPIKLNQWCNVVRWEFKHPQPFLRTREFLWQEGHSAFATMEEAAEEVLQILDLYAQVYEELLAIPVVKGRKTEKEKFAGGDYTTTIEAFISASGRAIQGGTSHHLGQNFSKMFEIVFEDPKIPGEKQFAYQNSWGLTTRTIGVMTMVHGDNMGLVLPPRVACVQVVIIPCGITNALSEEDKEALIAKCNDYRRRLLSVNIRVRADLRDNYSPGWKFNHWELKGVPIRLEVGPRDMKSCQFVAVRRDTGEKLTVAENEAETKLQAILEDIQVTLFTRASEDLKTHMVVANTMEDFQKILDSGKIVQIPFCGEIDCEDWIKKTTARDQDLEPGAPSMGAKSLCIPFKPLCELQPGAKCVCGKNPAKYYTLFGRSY

Compound	IC50 [nM]
O[C@H]1CCCN[C@@H]1CCCn1cnc2c(F)c(F)ccc21 [Example 49, (2R,3S)-2-(3-(4,5-difluoro-1H-benzo[d]imidazol-1-yl)propyl)piperidin-3-ol]	100 to 500
O[C@H]1CCCN[C@@H]1CCCn1cnc2ccc(F)c(F)c21 [Example 50, (2R,3S)-2-(3-(6,7-difluoro-1H-benzo[d]imidazol-1-yl)propyl)piperidin-3-ol]	100 to 500
Cc1ccc2c(ncn2CCC[C@H]2NCCC[C@@H]2O)c1C [Example 51, (2R,3S)-2-(3-(4,5-dimethyl-1H-benzo[d]imidazol-1-yl)propyl)piperidin-3-ol]	≥ 500
O[C@H]1CCCN[C@@H]1CCCn1cnc2cc(F)c(F)cc21 [Example 52, (2R,3S)-2-(3-(5,6-difluoro-1H-benzo[d]imidazol-1-yl)propyl)piperidin-3-ol]	100 to 500
O[C@H]1CCCN[C@@H]1CCCn1cnc2cc(Cl)c(Cl)cc21 [Example 53, (2R,3S)-2-(3-(5,6-dichloro-1H-benzo[d]imidazol-1-yl)propyl)piperidin-3-ol]	100 to 500
O[C@H]1CCCN[C@@H]1CCCn1cnc2cc(Br)c(Br)cc21 [Example 54, (2R,3S)-2-(3-(5,6-dibromo-1H-benzo[d]imidazol-1-yl)propyl)piperidin-3-ol]	≥ 500
Cc1cc2ncn(CCC[C@H]3NCCC[C@@H]3O)c2cc1C [Example 55, (2R,3S)-2-(3-(5,6-dimethyl-1H-benzo[d]imidazol-1-yl)propyl)piperidin-3-ol]	≥ 500
O[C@H]1CCCN[C@@H]1CCCn1cnc2ccc(Cl)c(Cl)c21 [Example 56, (2R,3S)-2-(3-(6,7-dichloro-1H-benzo[d]imidazol-1-yl)propyl)piperidin-3-ol]	100 to 500
O[C@H]1CCCN[C@@H]1CCCn1cnc2c(F)cc(F)cc21 [Example 57, (2R,3S)-2-(3-(4,6-difluoro-1H-benzo[d]imidazol-1-yl)propyl)piperidin-3-ol]	≥ 500
COc1ccc2c(ncn2CCC[C@H]2NCCC[C@@H]2O)c1Cl [Example 59, (2R,3S)-2-(3-(4-chloro-5-methoxy-1H-benzo[d]imidazol-1-yl)propyl)piperidin-3-ol]	100 to 500
COc1ccc2ncn(CCC[C@H]3NCCC[C@@H]3O)c2c1Cl [Example 60, (2R,3S)-2-(3-(7-chloro-6-methoxy-1H-benzo[d]imidazol-1-yl)propyl)piperidin-3-ol]	100 to 500
O[C@H]1CCCN[C@@H]1CCCn1cnc2c(Cl)c(F)ccc21 [Example 62, (2R,3S)-2-(3-(4-chloro-5-fluoro-1H-benzo[d]imidazol-1-yl)propyl)piperidin-3-ol]	100 to 500
Cc1c(F)ccc2ncn(CCC[C@H]3NCCC[C@@H]3O)c12 [Example 65, (2R,3S)-2-(3-(6-fluoro-7-methyl-1H-benzo[d]imidazol-1-yl)propyl)piperidin-3-ol]	100 to 500
O[C@H]1CCCN[C@@H]1CCCn1cnc2c(Cl)c(C(F)(F)F)ccc21 [Example 66, (2R,3S)-2-(3-(4-chloro-5-(trifluoromethyl)-1H-benzo[d]imidazol-1-yl)propyl)piperidin-3-ol]	≥ 500
COC(=O)c1cc(Br)c2c(c1)ncn2CCC[C@H]1NCCC[C@@H]1O [Example 68, methyl 7-bromo-1-(3-((2R,3S)-3-hydroxypiperidin-2-yl)propyl)-1H-benzo[d]imidazole-5-carboxylate]	≥ 500
O[C@H]1CCCN[C@@H]1CCCn1cnc2cc(C(F)(F)F)cc(Br)c21 [Example 71, (2R,3S)-2-(3-(7-bromo-5-(trifluoromethyl)-1H-benzo[d]imidazol-1-yl)propyl)piperidin-3-ol]	100 to 500
O[C@H]1CCCN[C@@H]1CCCn1cnc2c(F)cc(Br)cc21 [Example 72, (2R,3S)-2-(3-(6-bromo-4-fluoro-1H-benzo[d]imidazol-1-yl)propyl)piperidin-3-ol]	100 to 500
O[C@H]1CCCN[C@@H]1CCCn1cnc2cc(Br)cc(F)c21 [Example 73, (2R,3S)-2-(3-(5-bromo-7-fluoro-1H-benzo[d]imidazol-1-yl)propyl)piperidin-3-ol]	100 to 500
O[C@H]1CCCN[C@@H]1CCCn1cnc2c(F)ccc(Cl)c21 [Example 74, (2R,3S)-2-(3-(7-chloro-4-fluoro-1H-benzo[d]imidazol-1-yl)propyl)piperidin-3-ol]	100 to 500
O=[N+]([O-])c1c(Br)ccc2c1ncn2CCC[C@H]1NCCC[C@@H]1O [Example 75, (2R,3S)-2-(3-(5-bromo-4-nitro-1H-benzo[d]imidazol-1-yl)propyl)piperidin-3-ol]	≥ 500

Other lines, results leading:

IC50 [nM]	Compound
100 to 500	Cc1ccc2c(ncn2CCC[C@H]2NCCC[C@@H]2O)c1Cl [Example 44, (2R,3S)-2-(3-(4-chloro-5-methyl-1H-benzo[d]imidazol-1-yl)propyl)piperidin-3-ol]
100 to 500	Cc1c(Br)ccc2c1ncn2CCC[C@H]1NCCC[C@@H]1O [Example 45, (2R,3S)-2-(3-(5-bromo-4-methyl-1H-benzo[d]imidazol-1-yl)propyl)piperidin-3-ol]
≤ 100	Cc1c(Cl)ccc2c1ncn2CCC[C@H]1NCCC[C@@H]1O [Example 46, (2R,3S)-2-(3-(5-chloro-4-methyl-1H-benzo[d]imidazol-1-yl)propyl)piperidin-3-ol]
100 to 500	O[C@H]1CCCN[C@@H]1CCCn1cnc2c(F)c(Br)ccc21 [Example 47, (2R,3S)-2-(3-(5-bromo-4-fluoro-1H-benzo[d]imidazol-1-yl)propyl)piperidin-3-ol]
100 to 500	O[C@H]1CCCN[C@@H]1CCCn1cnc2ccc(Br)c(F)c21 [Example 48, (2R,3S)-2-(3-(6-bromo-7-fluoro-1H-benzo[d]imidazol-1-yl)propyl)piperidin-3-ol]
≤ 100	O[C@H]1CCCN[C@@H]1CCCn1cnc2cc(F)cc(F)c21 [Example 58, (2R,3S)-2-(3-(5,7-difluoro-1H-benzo[d]imidazol-1-yl)propyl)piperidin-3-ol]
≤ 100	Cc1cc(Cl)cc2c1ncn2CCC[C@H]1NCCC[C@@H]1O [Example 61, (2R,3S)-2-(3-(6-chloro-4-methyl-1H-benzo[d]imidazol-1-yl)propyl)piperidin-3-ol]
≤ 100	Cc1cc(Br)cc2c1ncn2CCC[C@H]1NCCC[C@@H]1O [Example 63, (2R,3S)-2-(3-(6-bromo-4-methyl-1H-benzo[d]imidazol-1-yl)propyl)piperidin-3-ol]
≤ 100	Cc1c(F)ccc2c1ncn2CCC[C@H]1NCCC[C@@H]1O [Example 64, (2R,3S)-2-(3-(5-fluoro-4-methyl-1H-benzo[d]imidazol-1-yl)propyl)piperidin-3-ol]
≤ 100	O[C@H]1CCCN[C@@H]1CCCn1cnc2ccc(C(F)(F)F)c(Cl)c21 [Example 67, (2R,3S)-2-(3-(7-chloro-6-(trifluoromethyl)-1H-benzo[d]imidazol-1-yl)propyl)piperidin-3-ol]
≤ 100	O[C@H]1CCCN[C@@H]1CCCn1cnc2cc(Cl)cc(Br)c21 [Example 69, (2R,3S)-2-(3-(7-bromo-5-chloro-1H-benzo[d]imidazol-1-yl)propyl)piperidin-3-ol]
≤ 100	O[C@H]1CCCN[C@@H]1CCCn1cnc2cc(Br)cc(Cl)c21 [Example 70, (2R,3S)-2-(3-(5-bromo-7-chloro-1H-benzo[d]imidazol-1-yl)propyl)piperidin-3-ol]
